Results on four molecules are retold here after PMC7504735, “Enhanced Antigiardial Effect of Omeprazole Analog Benzimidazole Compounds” (Molecules, 2020).

For data set [1], the target named is T1, triosephosphate isomerase (TPI) (Giardia intestinalis, UniProt P36186).
T1 construct: His-tag (TEV-cleavable) (cleaved yes); made in house
In words: Intrinsic fluorescence of TPI. To be noted: for Decrease of maximum intrinsic fluorescence intensity of TPI: compared to the TPI enzyme free of compounds; for Maximum intrinsic fluorescence intensity of TPI: compound at IC50 concentration, TPI without inhibitors 161 a.u. at 330 nm. On the procedure: Changes in tertiary structure were analyzed following the intrinsic and extrinsic fluorescence of the TPI enzyme in a Perkin-Elmer LS-55 spectrofluorometer (Perkin-Elmer, Wellesley, MA, USA). The TPI protein was adjusted at 0.1 mg/mL in 50 mM phosphate buffer (buffer P), pH 7.4n, and incubated with the four synthesized compounds by 2 h at 37 °C. After the TPI protein was incubated with the synthesized compounds, the samples were excited at 280 nm and we recorded the emission spectra from 300 to 500 nm with a scan speed of 150 nm/min and using excitation and emission slits of 5 and 4 nm, respectively. Furthermore, we determined the extrinsic fluorescence of the TPI enzyme in the presence of the four compounds by 8-anilinonaphthalene-1-sulfonic acid (ANS) assay to monitor changes in the hydrophobic regions of the protein. The protein was incubated in the same conditions as the intrinsic fluorescence assay. Then, we recorded the fluorescence spectra from 400 to 600 nm in the presence of 25 mM of ANS dissolved in methanol at 25 °C with a scanning rate of 150 nm/min. The samples were excited to 395 nm using slits of excitation and emission of 10 nm, respectively. The final spectrum was the average of five scans. Later, each spectrum was subtracted from the spectra of the blank (buffer P solution containing each of the compounds plus ANS).

In the next data set the test system is Caco-2 cells. The experiment in a line: in vitro. The data set is classed as cell-based. As for the experimental part: (§1) The cytotoxicity of compounds was investigated on human cell lines Caco-2 (ATCC HTB-37) and HT-29 (ATCC HHTB-38), using a Cell Proliferation Kit II (XTT; St Louis, MO, USA) according to the manufacturer’s instructions. A cell suspension of 10^5 cells/mL was prepared in Dulbecco’s modified Eagle’s (DMEM); medium supplemented with 10% inactivated fetal bovine serum and 1% Penicillin/streptomycin (5000 U/mL), from confluent cultures, and […] portions of the suspension were added to the wells of 96-well plates. […] Solutions of the compound were prepared and sterilized as described in Section 3.4.1 of Materials and Methods. Then, 150 μL of two-fold serial dilutions of each of the compounds, starting at a concentration of 500 µM, in a culture medium at a concentration of 0.3% DMSO, were prepared in the plates. […] Each compound was assayed in triplicate via three independent experiments.

A further data set in a line: in vitro. Type of data set: cell-based. To be noted: human, Caco-2; for selectivity ratio at 48 h: ratio of CC50/IC50 between mammal cells and trophozoites, read-out: Selectivity index (SI), CC50 Caco-2 / IC50 trophozoites; for viability at 48 h, 500 µM: read-out: Viability of Caco-2 cells (lowered to); for CC50 at 48 h: XTT. On the procedure:
as §1
For orientation: Tetrazolium assays rely on reduction of a dye to a coloured formazan, in cell work by metabolically active cells.

Data set [2] concerns the target T1, triosephosphate isomerase (TPI). In words: Thermal stability of TPI by circular dichroism at 222 nm. To be noted: for Tm of TPI enzyme incubated with compound: compound at its IC50 concentration, 2 h at 37 °C, TPI free of treatment 60.6 °C. On the procedure:
All spectroscopic assays were carried out at a protein concentration of 0.2 mg/mL. Changes in the secondary structure of proteins were monitored by circular dichroism (CD) in a Jasco-810 spectropolarimeter containing a thermostated Peltier-controlled cell holder. For CD experiments, the enzyme was suspended in 50 mM phosphate buffer (buffer P), pH 7.4, and incubated with the four synthesized compounds by 2 h at 37 °C. Spectral scans from 190 to 280 nm at 0.1 nm intervals were performed at 25 °C using a quartz cell with 0.1 cm path length. All CD data were reported as molar ellipticity. In addition, the thermostability of modified TPI enzyme in the absence or presence of each of the synthesized compounds was evaluated, recording the loss of CD signal at 222 nm during a temperature scan ranging from 25 to 75 °C and an increase of 1 °C/2.5 min. The unfolded fraction of enzyme and melting temperature (Tm) was determined as reported before. The experiments were performed in triplicate.
A general note: CD spectra are sensitive to the conformation of chiral molecules.

In data set [3] the test system is Giardia lamblia trophozoites. The experiment in a line: Antigiardial activity on G. lamblia trophozoites, trypan blue dye exclusion. Type of data set: cell-based. To be noted: Giardia duodenalis, 48 h at 37 °C, pH 7.4, trypan blue. On the procedure:
Giardia lamblia WB strain (ATCC number 30957) was grown in a modified TYI-S-33 medium supplemented with 10% fetal bovine serum. The parasite was cultivated in 15 mL screw-capped borosilicate glass tubes containing 13 mL medium. The tubes were incubated on a 15° horizontal slant at 37 °C. Giardia was harvested from confluent culture by chilling the tubes on ice for 5‒10 min to detach cells, followed by centrifugation at 800× g for 5 min.
The antigiardial activity of the prepared compounds was tested as described. One milligram of a test compound was dissolved in 10 L of DMSO and topped up with 1 mL growth medium. The solution was filter-sterilized using 0.22-m syringe filters and the appropriate volumes of the solutions were taken to prepare the concentration of each compound in 1.5 mL microtubes. For each preparation, concentrations of 500, 250, 125, 62, and 31 µg/mL were prepared in a final volume of 1.5 mL. Each tube was inoculated with 5 × 10^4 trophozoites of G. lamblia and then incubated for 48 h at 37 °C. After incubation, 75 L of the treated trophozoites were subcultured individually for another 48 h in a fresh medium free of compounds. At the end of this period, the viable trophozoites were counted. Each compound was assayed in duplicate in three independent experiments. In each assay, appropriate controls were also tested, including a sample without compound and another with DMSO.
The parasites in each tube were counted using a standard hemocytometer at 10× objective. In each count, trypan blue was employed to distinguish live parasites from dead ones. To permit detachment of Giardia, the tubes were placed on ice for 10 min and the parasites were then centrifuged at 800× g for 10 min. The supernatant was discarded and 1 mL fresh medium was added to each tube. The final suspension was prepared by mixing 25 μL of the parasite suspension in each tube with 100 μL of 0.4% trypan blue in phosphate-buffered saline (PBS). The 50% inhibitory concentration (IC50) was employed as a parameter for biological activity. The IC50 is the concentration of compounds that cuts the number of parasites to half that in the negative control (growth medium + DMSO + parasites). Lastly, the 50% inhibitory concentration (IC50) was calculated.

[4] abbreviates: 500 µM (highest concentration tested).

T1 sequence (P36186 whole entry): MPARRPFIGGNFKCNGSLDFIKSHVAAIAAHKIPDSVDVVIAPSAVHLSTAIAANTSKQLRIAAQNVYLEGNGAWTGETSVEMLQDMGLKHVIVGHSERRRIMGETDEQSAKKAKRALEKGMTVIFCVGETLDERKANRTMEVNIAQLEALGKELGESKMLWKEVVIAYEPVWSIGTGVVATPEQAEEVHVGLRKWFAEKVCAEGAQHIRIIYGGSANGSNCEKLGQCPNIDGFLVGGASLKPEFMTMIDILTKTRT

As usually defined, the CC50 is the concentration giving 50% cytotoxicity. In general, IC50 refers to the concentration that gives 50% inhibition. Turning to `Cc1c(OCC(F)(F)F)ccnc1C[S+]([O-])c1nc2ccccc2[nH]1` (stereo not shown) [Lansoprazole, 2-{[3-methyl-4-(2,2,2-trifluoroethoxy)pyridin-2-yl]methanesulfinyl}-1H-benzimidazole, reference compound], in data set [1], the “Decrease of maximum intrinsic fluorescence intensity of TPI” value (“Decrease … of TPI” for short) is given as 25% and the “Maximum intrinsic fluorescence intensity of TPI” value came to 123 a.u. For the same molecule, the “Cell viability decrease, Caco-2” value in the data set on Caco-2 cells (setting [4]) was “approximately 20%”. The same molecule displayed a CC50 in the data set on Caco-2 cells (XTT, 48 h) of 2640 µM. The selectivity ratio at 48 h in “in vitro” was 59. In data set [2], the “Tm of TPI enzyme incubated with compound” value came out at 60.2 °C. In data set [3], this molecule registered an IC50 of 45 µM.
Broadly, the viability is a read-out of living cells in per cent, often relative to untreated cells. On to `O=[N+]([O-])c1ccc2nc([S+]([O-])Cc3ccccn3)[nH]c2c1` (stereo not shown) [O2N-BZM7, 5-nitro-2-[(pyridin-2-yl)methanesulfinyl]-1H-benzimidazole], for which, in data set [1], the “Decrease … of TPI” value is on record as 33% and the “Maximum intrinsic fluorescence intensity of TPI” value stood at 107 a.u. Further, the “Cell viability decrease, Caco-2” value in the data set with Caco-2 cells (150 µM) is “around 20%”. Besides, in “in vitro”, the viability at 48 h, 500 µM is around 50%; the CC50 at 48 h is 640 µM; the selectivity ratio at 48 h amounted to 45. Also, in data set [2], the “Tm of TPI enzyme incubated with compound” value turned out to be 57.5 °C. The “Loss in thermal stability of TPI” value in data set [2] (versus TPI free of treatment) was determined as 3 °C. In data set [3], this molecule returned a half-inhibitory concentration (IC50) of 14 µM.
As to `COc1c(C)cnc(C[S+]([O-])c2nc3ccccc3[nH]2)c1C` (stereo not shown) [H-BZM2, 2-[(4-methoxy-3,5-dimethylpyridin-2-yl)methanesulfinyl]-1H-benzimidazole], in data set [1], the “Decrease … of TPI” value stood at 75% and the “Maximum intrinsic fluorescence intensity of TPI” value is reported as 40.1 a.u. The “Cell viability decrease, Caco-2” value in the data set with Caco-2 cells (setting [4]) is “approximately 20%”. Moreover, in the data set “in vitro”, the CC50 at 48 h is 3180 µM and the selectivity ratio at 48 h stood at 88. The “Tm of TPI enzyme incubated with compound” value in data set [2] worked out at 59.9 °C. Further, in data set [3], the IC50 was 36 µM.
For `Cc1c(OCC(F)(F)F)ccnc1C[S+]([O-])c1nc2ccc([N+](=O)[O-])cc2[nH]1` (stereo not shown) [O2N-BZM9, 2-{[3-methyl-4-(2,2,2-trifluoroethoxy)pyridin-2-yl]methanesulfinyl}-5-nitro-1H-benzimidazole], in data set [1], the “Decrease … of TPI” value amounted to 55% and the “Maximum intrinsic fluorescence intensity of TPI” value is given as 72.6 a.u. The “Cell viability decrease, Caco-2” value in the data set on Caco-2 cells (150 µM) is “around 20%”. Moreover, in “in vitro”, the viability at 48 h, 500 µM was around 50%; the midpoint of cytotoxicity, the CC50 at 48 h, lay at 663 µM; the selectivity ratio at 48 h stood at 39. Also, in data set [2], the “Tm of TPI enzyme incubated with compound” value came out at 58.4 °C. Also, in data set [3], the IC50 was found to be 17 µM.
